Laboratory results reported in patent publication US8017612B2, “Piperazine compound and use thereof as a HCV polymerase inhibitor” (priority 2006, dated 2011).

Legend:
[1] = target: T1, HCV polymerase (NS5B) type 1b (Hepatitis C virus genotype 1b, UniProt P26663); test: Assay of enzyme (HCV polymerase) inhibitory activity, type 1b enzyme; format: biochemical, HCV BK strain (type 1b); settings: HCV polymerase inhibitory activity (IC50), 1b, type 1b enzyme 0.5 μg/ml, 25° C., 60 min
T1 construct: a region encoding NS5B (J Virol 1991 March, 65(3), 1105-13, 544 amino acids after deletion of 47 amino acids on the C-terminal); 6xHis (C); made in house; host or cells: Escherichia coli
Method in brief: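 NS5B from HCV BK strain (type 1b), C-terminal 47 aa deleted, C-terminal His6-tagged, E. coli-expressed, 0.5 μg/ml, with ~450 nt substrate RNA carrying the 3′ UTR (polyU, 3′X) at 5 μg/ml. Incubation 60 min at 25 °C with 50 μM ATP/GTP/CTP, 2 μM UTP plus [3H]UTP, pH 7.5 Tris.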

[2] = target: T2, HCV polymerase (NS5B) type 1a (Hepatitis C virus genotype 1a, UniProt P26664); test: Assay of enzyme (HCV polymerase) inhibitory activity, type 1a enzyme; format: biochemical, HCV type 1a (cloned from the blood of patients); settings: HCV polymerase inhibitory activity (IC50), 1a, type 1a enzyme 1.5 μg/ml, 25° C., 60 min
T2 construct: made in house; host or cells: Escherichia coli (by the 'similar method' of the 1b enzyme)
Method in brief: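 Patient-derived type 1a NS5B (C-terminal 47-aa deletion, His-tagged, E. coli-expressed) at 1.5 μg/ml was reacted with 5 μg/ml 3′UTR-containing substrate RNA, 50 μM ATP/GTP/CTP, 2 μM UTP plus [3H]UTP, pH 7.5, 25° C for 60 min. TCA-precipitated RNA radioactivity was counted; IC50 from ± compound.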

Compound	IC50 [1] [nM]	IC50 [2] [nM]
COC(=O)c1ncc(N2CCN(S(=O)(=O)c3ccc(C(F)(F)F)cc3)[C@@H](C(=O)NCc3ccc(C(C)C)cc3)C2)nc1N [Example 423, (R)-6′-amino-3-(4-isopropyl-benzylcarbamoyl)-4-(4-trifluoromethyl-benzenesulfonyl)-3,4,5,6-tetrahydro-2H-[1,2′]bipyrazinyl-5′-carboxylic acid methyl ester]	< 100	< 100
CCN(C)c1ccc(CNC(=O)[C@H]2CN(c3nc(C)c(C(=O)O)s3)CCN2S(=O)(=O)c2ccc(OC(F)(F)F)cc2)cc1 [Example 424, 2-[(R)-3-[4-(ethyl-methyl-amino)-benzylcarbamoyl]-4-(4-trifluoromethoxy-benzenesulfonyl)-piperazin-1-yl]-4-methyl-thiazole-5-carboxylic acid]	< 100	< 100
CCN(CC)c1ccc(CNC(=O)[C@H]2CN(c3nc(C)c(C(=O)O)s3)CCN2S(=O)(=O)c2ccc(OC(F)(F)F)cc2)cc1 [Example 425, 2-[(R)-3-(4-diethylamino-benzylcarbamoyl)-4-(4-trifluoromethoxy-benzenesulfonyl)-piperazin-1-yl]-4-methyl-thiazole-5-carboxylic acid]	< 100	< 100
CC(C)c1ccc(CNC(=O)[C@H]2CN(c3cc(C(=O)O)[nH]n3)CCN2S(=O)(=O)c2ccc(C(F)(F)F)cc2)cc1 [Example 426, 5-[(R)-3-(4-isopropyl-benzylcarbamoyl)-4-(4-trifluoromethyl-benzenesulfonyl)-piperazin-1-yl]-2H-pyrazole-3-carboxylic acid]	100 to 1000	> 1000
CC(C)c1ccc(CNC(=O)[C@H]2CN(c3n[nH]c(C(=O)O)c3Cl)CCN2S(=O)(=O)c2ccc(C(F)(F)F)cc2)cc1 [Example 427, 4-chloro-5-[(R)-3-(4-isopropyl-benzylcarbamoyl)-4-(4-trifluoromethyl-benzenesulfonyl)-piperazin-1-yl]-2H-pyrazole-3-carboxylic acid]	> 1000	> 1000
CC(=O)N1CCN(S(=O)(=O)c2ccc(CC3CC3)cc2)[C@@H](C(=O)NCc2ccc(C(C)C)cc2)C1 [Example 428, (R)-4-acetyl-1-(4-cyclopropylmethyl-benzenesulfonyl)-piperazine-2-carboxylic acid 4-isopropyl-benzylamide]	< 100	< 100
CCCc1ccc(S(=O)(=O)N2CCN(C(C)=O)C[C@@H]2C(=O)NCc2ccc(C(C)C)cc2)c(F)c1 [Example 429, (R)-4-acetyl-1-(2-fluoro-4-propyl-benzenesulfonyl)-piperazine-2-carboxylic acid 4-isopropyl-benzylamide]	< 100	< 100
CC(=O)N1CCN(S(=O)(=O)c2ccc(Br)cc2)[C@@H](C(=O)NCc2ccc(C(C)C)cc2)C1 [Example 430, (R)-4-acetyl-1-(4-bromo-benzenesulfonyl)-piperazine-2-carboxylic acid 4-isopropyl-benzylamide]	100 to 1000	100 to 1000
COC(=O)c1cnc(N2CCN(S(=O)(=O)c3ccc(C(F)(F)F)cc3)[C@@H](C(=O)NCc3ccc(C(C)C)cc3)C2)c(C)n1 [Example 431, (R)-3-(4-isopropyl-benzylcarbamoyl)-3′-methyl-4-(4-trifluoromethyl-benzenesulfonyl)-3,4,5,6-tetrahydro-2H-[1,2′]bipyrazinyl-5′-carboxylic acid methyl ester]	100 to 1000	100 to 1000
CCCc1ccc(CNC(=O)[C@H]2CN(c3cnc(C(=O)O)cn3)CCN2S(=O)(=O)c2ccc(OC(F)(F)F)cc2)c(C)c1 [Example 432, (R)-3-(2-methyl-4-propyl-benzylcarbamoyl)-4-(4-trifluoromethoxy-benzenesulfonyl)-3,4,5,6-tetrahydro-2H-[1,2′]bipyrazinyl-5′-carboxylic acid]	< 100	< 100
